The series addresses Potassium voltage-gated channel subfamily H member 2 (Homo sapiens, UniProt Q12809). The experiment in a line: Inhibition of Specific Binding to the hERG Receptor (HERGBD). The protocol: Binding was terminated by filtration of the incubated membrane preparations using Filtermat B (Pharmacia, Uppsala Sweden) and a Micro Cell Harvester (Skatron, Lier, Norway). The Filtermat B had been presoaked with 1% polyethylen imine and carefully washed with 0.05 M Tris/HCl-buffer pH=7.7 after the filtration to separate free and bound radioactivity. […] The optimal amount of membrane preparation in the assay was determined and optimized for each membrane preparation separately in front of using the membranes in compound testing. […] For pipetting of the incubation mixture we routinely use the robot Biomek2000 (Fa. Beckman).

The term IC50 denotes the concentration at which inhibition is half-maximal. Higher therefore signals a need for much substance.

Structures are written as SMILES.

Chain of Potassium voltage-gated channel subfamily H member 2 (Q12809 whole entry): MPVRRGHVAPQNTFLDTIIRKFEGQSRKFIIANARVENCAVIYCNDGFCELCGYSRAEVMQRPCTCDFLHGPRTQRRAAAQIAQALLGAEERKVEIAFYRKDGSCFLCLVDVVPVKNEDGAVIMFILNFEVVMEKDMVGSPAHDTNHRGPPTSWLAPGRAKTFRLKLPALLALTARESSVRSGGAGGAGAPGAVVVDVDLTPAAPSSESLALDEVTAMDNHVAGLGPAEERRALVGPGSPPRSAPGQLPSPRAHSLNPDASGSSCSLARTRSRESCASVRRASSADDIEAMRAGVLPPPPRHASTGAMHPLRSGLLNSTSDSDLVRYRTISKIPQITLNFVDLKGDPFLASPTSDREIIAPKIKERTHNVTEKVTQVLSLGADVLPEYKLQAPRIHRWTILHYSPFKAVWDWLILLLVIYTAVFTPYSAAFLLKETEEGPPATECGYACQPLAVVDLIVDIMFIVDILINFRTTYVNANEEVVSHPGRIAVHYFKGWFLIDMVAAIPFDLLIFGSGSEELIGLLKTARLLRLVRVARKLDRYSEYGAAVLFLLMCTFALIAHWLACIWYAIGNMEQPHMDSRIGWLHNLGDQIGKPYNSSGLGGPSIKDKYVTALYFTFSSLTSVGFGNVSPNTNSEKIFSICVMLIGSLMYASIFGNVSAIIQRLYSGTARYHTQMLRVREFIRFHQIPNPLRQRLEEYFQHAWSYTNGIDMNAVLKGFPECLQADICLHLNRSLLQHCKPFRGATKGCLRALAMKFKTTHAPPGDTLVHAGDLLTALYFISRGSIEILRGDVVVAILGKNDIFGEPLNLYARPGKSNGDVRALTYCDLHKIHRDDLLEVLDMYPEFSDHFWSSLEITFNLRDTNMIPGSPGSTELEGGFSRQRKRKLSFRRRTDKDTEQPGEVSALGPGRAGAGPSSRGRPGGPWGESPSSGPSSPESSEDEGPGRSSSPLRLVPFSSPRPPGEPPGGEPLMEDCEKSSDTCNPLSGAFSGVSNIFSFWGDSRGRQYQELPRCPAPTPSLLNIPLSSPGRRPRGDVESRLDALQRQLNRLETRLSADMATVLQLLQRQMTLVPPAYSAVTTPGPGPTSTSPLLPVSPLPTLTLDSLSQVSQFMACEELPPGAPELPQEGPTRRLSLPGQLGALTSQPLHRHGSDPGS

The compound `COc1cc(Cl)ccc1-c1cnn(Cc2ccn(C)n2)c1` [USRE49517, Example 67] had an IC50 of 63.3 µM.

The record behind these values is BindingDB's records for patent USRE49517 (Janssen Pharmaceuticals, 2023).
